Assay results: patent US9656953B2, “Inhibition of cell proliferation” (University of South Florida, priority 2005, dated 2017)
“Also recorded” adds a separate entry of the source.

How the values were obtained:
[1] = tested on: A549 cells stably expressing sh6; experiment: BrdU incorporation, A549 Rb shRNA sh6; assay type: cell-based, human; settings: 20 μM, Rb knock down
Description: (§1) Proliferation assays. Bromodeoxyuridine (BrdU) labeling kits were obtained from Roche Biochemicals (Indianapolis, Ind.). Cells were plated in poly-D-lysine coated chamber slides at a density of 10,000 cells per well and rendered quiescent by serum starvation for 24 hours. Cells were then re-stimulated with serum in the presence or absence of the indicated drugs for 18 h. S-phase cells were visualized by microscopy and quantitated by counting 3 fields of 100 in quadruplicate.
(§2) To further confirm that 3a requires a functional Rb to inhibit tumor cell proliferation, A549 cells (human epithelial lung carcinoma) were stably transfected with two different shRNA constructs (sh6 and sh8) to knock down Rb expression.

[2] = tested on: A549 cells stably expressing sh8; experiment: BrdU incorporation, A549 Rb shRNA sh8; assay type: cell-based, human; settings: 20 μM, Rb knock down
Description: as §1, §2

[3] = tested on: U251MG glioblastoma cell line; experiment: BrdU incorporation, S-phase entry, U251MG; assay type: cell-based; settings: null for p16 and PTEN
Description: as §1

[4] = biological target: T1, Raf-1 (Homo sapiens, UniProt P04049); experiment: In vitro kinase assay, Raf-1; assay type: biochemical
T1 construct: purchased Upstate Signaling, Charlottesville, Va; (Raf-1); QED Bioscience, San Diego, Calif; (Rb)
T1 sequence (P04049 whole entry): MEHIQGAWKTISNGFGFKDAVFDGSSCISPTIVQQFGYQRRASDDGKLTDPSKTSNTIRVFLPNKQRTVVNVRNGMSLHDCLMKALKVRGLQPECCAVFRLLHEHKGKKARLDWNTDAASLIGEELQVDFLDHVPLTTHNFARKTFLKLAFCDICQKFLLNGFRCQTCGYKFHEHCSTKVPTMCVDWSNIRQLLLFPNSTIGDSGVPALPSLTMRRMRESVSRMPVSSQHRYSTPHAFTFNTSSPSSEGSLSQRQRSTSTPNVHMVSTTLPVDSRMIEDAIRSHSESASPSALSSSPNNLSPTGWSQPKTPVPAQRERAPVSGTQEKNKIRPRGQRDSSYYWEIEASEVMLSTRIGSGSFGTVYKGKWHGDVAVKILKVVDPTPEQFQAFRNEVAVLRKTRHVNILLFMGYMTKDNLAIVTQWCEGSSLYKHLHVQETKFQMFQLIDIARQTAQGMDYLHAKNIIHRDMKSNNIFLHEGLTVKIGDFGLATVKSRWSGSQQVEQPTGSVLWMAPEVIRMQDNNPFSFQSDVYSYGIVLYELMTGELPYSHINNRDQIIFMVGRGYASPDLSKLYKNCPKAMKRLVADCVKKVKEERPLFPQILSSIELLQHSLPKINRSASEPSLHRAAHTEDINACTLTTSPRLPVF
Description: (§3) In vitro kinase assay. The kinase reaction for Raf-1 was carried out with 100 nanograms (ng) of Raf-1 (Upstate Signaling, Charlottesville, Va.), 0.5 μg of full-length Rb protein (QED Bioscience, San Diego, Calif.) as the substrate, 10 μM ATP, 10 μCi of [γ-^32P] ATP in the kinase assay buffer in the presence or absence of the drugs at 30° C. for 30 minutes. Cyclin D and E kinase assays are described in (Dasgupta 2004).

[5] = tested on: SK-MEL-5 cells; experiment: Soft agar assay, SK-MEL-5; assay type: cell-based
Description: Soft Agar Assay. Soft agar assays were done in triplicate in 12-well plates (Corning, Corning N.Y.). First, the bottom layer of agar (0.6%) was allowed to solidify at room temperature. Next the top layer of agar was (0.3%) was mixed with 5,000 cells per well and the indicated drug. The drugs were added twice weekly in complete media to the agar wells. Colonies were quantified by staining with MTT (3-(4,5-Dimethylthiazol-2-yl)-2,5-diphenyltetrazolium bromide) 1 mg/mL for 1 hour at 37° C.
Experiments were also carried out to examine the effect of 3a in inhibiting the adherence-independent growth of cancer cells in soft agar.

[6] = tested on: Saos-2 cells; experiment: BrdU incorporation, S-phase entry, Saos-2; assay type: cell-based; settings: 20 μM, 18 hours, Rb null
Description: as §1
(§4) Given the selectivity of 3a described in FIGS. 1 and 2 above for disrupting the Rb:Raf-1 interaction, it was examined if 3a can inhibit the proliferation of cells and whether such an inhibition required a functional Rb gene.

[7] = tested on: A549 tumors; experiment: A549 xenograft in nude mice; assay type: in vivo; settings: for tumor size, A549 xenograft: vehicle 1039±128 mm^3
Description: Animal Studies. Nude mice (Charles River, Wilminton, Mass., USA) were maintained in accordance with Institutional Animal Care and Use Committee (IAUCUC) procedures and guidelines. A549 cells were harvested and resuspended in PBS, and then injected s.c. into the right and left flanks (10×10^6 cells per flank) of 8-week old female nude mice as reported previously (Sun 99). When tumors reached about 100-200 mm^3, animals were dosed intraperitoneally i.p. or orally by gavage with 0.1 mL solution once daily. […] The tumor volumes were determined by measuring the length (l) and the width (w) and calculating the volume (V=lw^2/2) as described previously (Sun 99). Statistical significance between control and treated animals were evaluated using Student's t-test.

[8] = tested on: U87MG glioblastoma cell line; experiment: BrdU incorporation, S-phase entry, U87MG; assay type: cell-based; settings: null for p16 and PTEN
Description: as §1

[9] = tested on: H1650 non-small cell lung cancer cell line; experiment: BrdU incorporation, S-phase entry, H1650; assay type: cell-based; settings: EGFR mutant NSCLC
Description: as §1
Because many cancers contain more than one mutation in tumor suppressor genes or oncogenes, we determined the ability of 3a to inhibit proliferation in cell lines containing alterations in key regulatory genes.

[10] = tested on: U2-OS cells; experiment: BrdU incorporation, S-phase entry, U2-OS; assay type: cell-based; settings: 20 μM, 18 hours, Rb wild type
Description: as §1, §4

[11] = tested on: A549 cells; experiment: BrdU incorporation, S-phase entry, A549; assay type: cell-based, human; settings: 20 μM
Description: as §1, §2

[12] = tested on: A549 tumors; experiment: Immunohistochemistry staining of A549 xenograft tumors; assay type: in vivo, nude mice; settings: A549 tumors at end of treatment
Description: Immunohistochemistry staining. Upon termination of xenograft anti-tumor experiments, tumors were removed and fixed in 10% neutral-buffered formalin before processing into paraffin blocks. Tissue sections (5 micrometers (μm) thick) were cut from the blocks and stained with Ki-67, CD31, TUNEL, and phospho-Rb antibodies. Paraffin sections were rehydrated to PBS and processed using the following protocols. Sections were rinsed in dH2O, and then subjected to microwave ‘antigen retrieval’ for 20 minutes on 70% power, with a 1 minute cooling period after every 5 minutes, in 0.01 M sodium citrate, pH 6.0 (Janssen P J, Brinkmann A O, Boersma W J, Van der Kwast T H. J Histochem Cytochem 1994; 42(8):1169-75; Shi S R, Key M E, Kalra K L. J Histochem Cytochem 1991; 39(6):741-748). Sections were cooled for 20 minutes, rinsed 3 times in dH2O, twice in PBS and incubated in 5% normal goat serum for 30 minutes. Sections were incubated in primary antibody for 1 hour in 5% normal goat serum, rinsed 3 times in PBS. For color development the slides were treated with ABC kit (Vector Labs, Burlingame, Calif.) rinsed in dH2O, and developed using DAB as chromogen. After a final rinse in dH2O, sections were lightly counterstained in hematoxylin, dehydrated, cleared and coverslipped. Tissue sections were stained with hematoxylin and eosin (H&E) using standard histological techniques. Tissue sections were also subjected to immunostaining for CD31 (BD Biosciences, San Diego, Calif., USA) using the avidin-biotin peroxidase complex technique. Mouse monoclonal antibody was used at 1:50 dilution following microwave antigen retrieval (four cycles of 5 min each on high in 0.1 M citrate buffer). Apoptotic cells were detected using DeadEnd Colorimetric TUNEL system (Promega, Madison, Wis.).
At the end of the drug treatment, the A549 tumors were removed from the mice and fixed in formalin or snap frozen in liquid nitrogen for further histochemical analysis. The tumors were analyzed by immunohistochemistry staining with hematoxylin and eosin (H&E), TUNEL, Ki-67, phospho-Rb (807,811), and CD-31. […] Tumors were homogenized and lysates were prepared to assess the inhibition of Rb:Raf-1 interaction in vivo.

[13] = tested on: cyclin E kinase activity; experiment: In vitro kinase assay, cyclin E; assay type: biochemical
Description: as §3

[14] = tested on: cyclin D; experiment: Western/IP-western, cyclin D level and association with Rb; assay type: cell-based, human; settings: IP-western
Description: Lysate preparation, pmmunoprecipitation, and pestern plotting.

Cl.N=C(N)SCc1ccc(Cl)cc1Cl [Compound 3a]
S-phase entry (BrdU), A549 sh6 [1]: does not inhibit the proliferation; also recorded: no effect | S-phase entry (BrdU), A549 sh8 [2]: does not inhibit the proliferation; also recorded: no effect | S-phase entry, U251MG [3]: inhibited S-phase entry | Raf-1 kinase activity [4]: does not inhibit; also recorded: did not affect the kinase activities | adherence-independent growth in soft agar, SK-MEL-5 [5]: significantly inhibited the growth | S-phase entry (BrdU), Saos-2 [6]: little effect | A549 tumor growth in words, 3a ([7]; 50 mpk/day i.p. or 150 mpk/day oral): completely inhibit tumor growth; also recorded: did not grow | tumor size, A549 xenograft ([7]; 50 mpk/day i.p.): 144±20 mm^3 | tumor size, A549 xenograft ([7]; 150 mpk/day oral): 148±32 mm^3 | S-phase entry, U87MG [8]: inhibited S-phase entry | inhibition of S-phase entry, H1650 [9]: 90% | S-phase entry (BrdU), U2-OS [10]: inhibited S-phase entry | S-phase entry (BrdU), parental A549 [11]: arrests wild-type A549 cells; also recorded: very effective | apoptosis, TUNEL staining of tumors [12]: dose dependent increase in apoptosis | microvasculature, CD31 staining of tumors [12]: reduction in microvasculature | phospho-Rb staining of tumors [12]: reduction in phosphorylation of Rb | proliferation, Ki-67 staining of tumors [12]: significant inhibition of proliferation | cyclin E kinase activity [13]: does not inhibit; also recorded: did not affect the kinase activities | level of cyclin D and its association with Rb [14]: tended to reduce the levels of cyclin D as well as its association with Rb; also recorded: reduced
